Measurements published in patent US20210195905A1, “NATURAL COMPLEX PRESERVATIVE AGENT FOR GRAIN OR GRAIN PRODUCT” (BST Inc., priority 2019, published 2021).

Assay: DPPH radical scavenging (antioxidant activity)
Assay type: biochemical
Conditions: 0.2 mM DPPH, 30 minutes in the dark, absorbance 517 nm

Compound	concentration for 50% scavenging of radical (SC50) [µg/mL]
COc1ccc(O)c(C(C)(C)C)c1 [BHA, Butylated Hydroxy Anisole]	58.83
O=C1O[C@H]([C@@H](O)CO)C(O)=C1O [L-ascorbic acid]	49.95
